Assay results as given in ChEMBL document CHEMBL1201862, “PubChem BioAssay data set” (2004).
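These data come from cells grown in 96-well plates and exposed to compound for 48 hours at five concentrations. The concentration for 50% growth inhibition is given as GI50.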 Activity calls are given as the source filed them. Cut-off read from the data, not from the text of the source: active = GI50 up to about 1.1 µM and inactive = higher.

Key:
Experiment in all cases: growth of human tumour cells (NCI), 48 h
[1] = system: DLD-1
[2] = system: DMS-114
[3] = system: DMS-273
[4] = system: HOP-18
[5] = system: KM-20L2
[6] = system: LOX IMVI
[7] = system: LXFL 529
[8] = system: M19-MEL
[9] = system: NCI-H226
[10] = system: NCI-H460
[11] = system: OVCAR-5
[12] = system: RXF 631
[13] = system: SF-295
[14] = system: SK-MEL-2
[15] = system: SNB-78
[16] = system: UO-31
[17] = system: 786-0
[18] = system: A498
[19] = system: A549
[20] = system: ACHN
[21] = system: CCRF-CEM
[22] = system: COLO 205
[23] = system: EKVX
[24] = system: HCC 2998
[25] = system: HCT-116
[26] = system: HCT-15
[27] = system: HL-60
[28] = system: HOP-62
[29] = system: HOP-92
[30] = system: IGROV-1
[31] = system: K562
[32] = system: KM12
[33] = system: M14
[34] = system: MOLT-4
[35] = system: Malme-3M
[36] = system: NCI-H23
[37] = system: NCI-H522
[38] = system: OVCAR-3
[39] = system: OVCAR-4
[40] = system: OVCAR-8
[41] = system: RPMI-8226
[42] = system: RXF 393
[43] = system: SF-268
[44] = system: SF-539
[45] = system: SK-MEL-28
[46] = system: SK-MEL-5
[47] = system: SK-OV-3
[48] = system: SNB-19
[49] = system: SNB-75
[50] = system: SW-620
[51] = system: TK-10
[52] = system: U-251
[53] = system: UACC-257
[54] = system: UACC-62
[55] = system: CAKI-1
[56] = system: HT-29
[57] = system: SN12C
[58] = system: XF498
[59] = system: SR

Measured: GI50

O=C(O)C1NCCc2c1[nH]c1ccccc21 (configuration not stated)
inactive: [1] > 100 µM | [2] > 100 µM | [3] > 100 µM | [4] > 100 µM | [5] > 100 µM | [6] > 100 µM | [7] > 100 µM | [8] > 100 µM | [9] > 100 µM | [10] > 100 µM | [11] > 100 µM | [12] > 100 µM | [13] > 100 µM | [14] > 100 µM | [15] > 100 µM | [16] > 100 µM

O=C1NC(=O)C(C(=O)C(=O)Nc2cc(Cl)ccc2Cl)C(=O)N1
> 100 µM: [26]
inactive: [17] > 100 µM | [18] > 100 µM | [19] > 100 µM | [20] > 100 µM | [21] > 100 µM | [22] > 100 µM | [1] > 100 µM | [2] > 100 µM | [23] > 100 µM | [24] > 100 µM | [25] > 100 µM | [27] > 100 µM | [28] > 100 µM | [29] 91.8 µM | [30] > 100 µM | [31] > 100 µM | [5] > 100 µM | [32] > 100 µM | [7] > 100 µM | [33] > 100 µM | [8] > 100 µM | [34] > 100 µM | [35] > 100 µM | [36] > 100 µM | [10] > 100 µM | [37] > 100 µM | [38] > 100 µM | [39] > 100 µM | [11] > 100 µM | [40] > 100 µM | [41] > 100 µM | [42] > 100 µM | [12] > 100 µM | [43] > 100 µM | [13] > 100 µM | [44] > 100 µM | [45] > 100 µM | [14] > 100 µM | [46] > 100 µM | [47] > 100 µM | [48] > 100 µM | [49] 83.2 µM | [15] > 100 µM | [50] > 100 µM | [51] > 100 µM | [52] > 100 µM | [53] > 100 µM | [54] > 100 µM | [16] > 100 µM

C[S+](C)CCOC(=O)C(=[N+]=[N-])c1ccc([N+](=O)[O-])cc1
> 100 µM: [26]
inactive: [17] > 100 µM | [18] > 100 µM | [19] > 100 µM | [20] > 100 µM | [55] > 100 µM | [21] > 100 µM | [22] > 100 µM | [2] > 100 µM | [3] > 100 µM | [23] > 100 µM | [24] > 100 µM | [25] > 100 µM | [27] > 100 µM | [4] > 100 µM | [28] > 100 µM | [56] > 100 µM | [30] > 100 µM | [31] > 100 µM | [5] > 100 µM | [32] > 100 µM | [7] > 100 µM | [33] > 100 µM | [8] > 100 µM | [34] > 100 µM | [35] > 100 µM | [9] > 100 µM | [36] > 100 µM | [10] > 100 µM | [37] > 100 µM | [38] > 100 µM | [39] > 100 µM | [11] > 100 µM | [40] > 100 µM | [41] > 100 µM | [42] > 100 µM | [12] > 100 µM | [43] > 100 µM | [13] > 100 µM | [44] > 100 µM | [14] > 100 µM | [46] > 100 µM | [47] > 100 µM | [57] > 100 µM | [48] > 100 µM | [49] > 100 µM | [15] > 100 µM | [50] > 100 µM | [51] > 100 µM | [52] > 100 µM | [53] > 100 µM | [54] > 100 µM | [16] > 100 µM | [58] > 100 µM

NC(CCCC(N)P(=O)(O)c1ccccc1)P(=O)(O)c1ccccc1 (configuration not stated)
> 261 µM: [26]
inactive: [17] > 261 µM | [18] > 261 µM | [19] > 261 µM | [20] > 261 µM | [21] > 261 µM | [22] > 261 µM | [1] > 261 µM | [2] > 261 µM | [3] > 261 µM | [23] > 261 µM | [24] > 261 µM | [25] > 261 µM | [27] > 261 µM | [4] > 261 µM | [28] > 261 µM | [29] > 261 µM | [56] > 261 µM | [30] > 261 µM | [31] > 261 µM | [5] > 261 µM | [32] > 261 µM | [6] > 261 µM | [7] > 261 µM | [33] > 261 µM | [8] > 261 µM | [34] > 261 µM | [35] > 261 µM | [9] > 261 µM | [36] > 261 µM | [10] > 261 µM | [37] > 261 µM | [38] > 261 µM | [39] > 261 µM | [40] > 261 µM | [41] > 261 µM | [42] > 261 µM | [43] > 261 µM | [13] > 261 µM | [44] > 261 µM | [45] > 261 µM | [14] > 261 µM | [47] > 261 µM | [57] > 261 µM | [48] > 261 µM | [49] > 261 µM | [15] > 261 µM | [59] > 261 µM | [50] > 261 µM | [51] > 261 µM | [52] > 261 µM | [53] > 261 µM | [54] > 261 µM | [16] > 261 µM | [58] > 261 µM

CNC1CC(n2cc(C)c(=O)[nH]c2=O)OC1CO (configuration not stated)
inactive: [17] > 100 µM | [18] > 100 µM | [20] > 100 µM | [55] > 100 µM | [21] > 100 µM | [22] > 100 µM | [1] > 100 µM | [2] > 100 µM | [3] > 100 µM | [24] > 100 µM | [25] > 100 µM | [27] > 100 µM | [28] > 100 µM | [29] > 100 µM | [30] > 100 µM | [31] > 100 µM | [7] > 100 µM | [33] > 100 µM | [8] > 100 µM | [34] > 100 µM | [35] > 100 µM | [9] > 100 µM | [36] > 100 µM | [37] > 100 µM | [39] > 100 µM | [41] > 100 µM | [12] > 100 µM | [43] > 100 µM | [44] > 100 µM | [45] > 100 µM | [14] > 100 µM | [47] > 100 µM | [57] > 100 µM | [49] > 100 µM | [59] > 100 µM | [54] > 100 µM | [16] > 100 µM | [58] > 100 µM

C=CC1(C)CCC(C(C)C(=O)C(C=C(C)C)OC(C)=O)C12C(=O)Oc1ccccc1C2=O (configuration not stated)
inactive: [17] 84.1 µM | [19] 35.7 µM | [20] 51.5 µM | [21] 27 µM | [22] 29.4 µM | [1] 54.5 µM | [2] 26 µM | [3] 23.4 µM | [23] 60.8 µM | [24] 82.4 µM | [25] 31.1 µM | [27] 19.7 µM | [4] 95.3 µM | [28] 35.2 µM | [29] 40.2 µM | [56] 35.3 µM | [30] 72.3 µM | [31] 31.6 µM | [5] 51.3 µM | [32] 44.8 µM | [6] 35.7 µM | [7] 37.8 µM | [33] 54.2 µM | [8] 26.2 µM | [34] 26.2 µM | [35] 48.5 µM | [9] 58.5 µM | [36] 46.7 µM | [10] 29.6 µM | [37] 31.6 µM | [38] 38.9 µM | [39] 45.2 µM | [40] 37.6 µM | [41] 23.7 µM | [42] 26.7 µM | [43] 62.1 µM | [13] 47.9 µM | [44] > 100 µM | [45] > 100 µM | [14] 32.7 µM | [47] 82.2 µM | [57] 49.4 µM | [48] > 100 µM | [49] 52.5 µM | [15] 79.4 µM | [59] 33.6 µM | [50] 63.8 µM | [51] > 100 µM | [52] 38 µM | [53] 35 µM | [54] 49 µM | [16] 34.4 µM | [58] 54 µM
38.5 µM: [26]
